40 molecules from patent US8802720B2, “Acylamino-substituted fused cyclopentanecarboxylic acid derivatives and their use as pharmaceuticals” (SANOFI, priority 2008, dated 2014) can be followed below.

human Edg-2 receptor (LPA1 receptor), sequence (Q92633 whole entry): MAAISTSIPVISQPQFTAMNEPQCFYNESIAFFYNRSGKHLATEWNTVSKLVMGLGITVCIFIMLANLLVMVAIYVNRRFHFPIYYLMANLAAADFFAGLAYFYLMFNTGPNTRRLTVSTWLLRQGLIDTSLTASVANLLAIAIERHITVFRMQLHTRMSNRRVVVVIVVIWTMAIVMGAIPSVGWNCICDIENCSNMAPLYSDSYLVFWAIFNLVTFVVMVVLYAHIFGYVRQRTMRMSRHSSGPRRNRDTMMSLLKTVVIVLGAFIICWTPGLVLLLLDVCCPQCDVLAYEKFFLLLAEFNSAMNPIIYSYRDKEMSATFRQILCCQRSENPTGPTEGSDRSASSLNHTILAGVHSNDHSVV

This test concerns the target human Edg-2 receptor (LPA1 receptor) (Homo sapiens, UniProt Q92633). The experiment in a line: Edg-2 receptor inhibition by FLIPR calcium fluorescence measurement (LPA-mediated calcium liberation). Format: cell-based. Particulars: CHO cells stably overexpressing human Edg-2 receptor; LPA 18:1 100 nM; fluo-4 fluorescence; triplicate; read-out: Inhibitory concentrations IC50 for inhibition of the Edg-2 receptor. As to the method: A) Determination of Edg-2 Receptor Inhibition by Fluorescence Imaging Plate Reader (FLIPR) Measurements
The inhibition of the Edg-2 receptor (LPA1 receptor) by the compounds of the invention was quantified by the inhibitory effect on the LPA-mediated calcium liberation in a cell-based calcium fluorescence assay by use of Chinese hamster ovarian (CHO) cells in which the human Edg-2 receptor was stably overexpressed (FIp-In system, Invitrogen). […] Changes in intracellular calcium were determined by fluorescence measurement with the calcium-sensitive dye fluo-4 (Invitrogen) in a fluorescence imaging plate reader (FLIPR, […]).
CHO cells stably overexpressing the human Edg-2 receptor were seeded (40.000 per well) in black clear-bottomed poly-D-lysine-coated 96 well plates (Becton Dickinson, Biocoat cellware) approximately 18-24 h prior to the experiments. Cells were grown in an incubator at 37° C., 5% carbon dioxide and 95% humidity in cell culture media based on F-12 glutamax media (Gibco, #31765) supplemented with 1% (vol/vol) penicilline/streptomycine (PAN, #P06-07100), 10% (vol/vol) fetal calf serum (FCS, PAA, #A15-151) and hygromycin B (Invitrogen, #10687-010) 300 mg/l (final concentrations).
Prior to the FLIPR experiment, cells were loaded with fluo-4 acetoxymethyl ester (fluo-4 AM, Invitrogen, #F14202) for 60 min in an incubator at 37° C., 5% carbon dioxide and 95% humidity in dye-loading buffer consisting of Hanks' Balanced Salt Solution (HBSS, Invitrogen, #14065049) supplemented with fluo-4 AM at 2 μM (all data given for final concentration), Pluronic® F-127 0.05% (vol/vol) (Invitrogen, #P-3000 MP), HEPES 20 mM (Gibco, #15630), probenecid 2.5 mM (Sigma, #P-8761) and bovine serum albumin 0.05% (BSA, Sigma, #A-6003), adjusted to pH 7.5 with sodium hydroxide. During cell loading, fluo-4 AM is cleaved by intracellular esterase resulting in trapping of the dye fluo-4 within the cells. Loading was terminated by washing of the cells in a cell washer (Tecan Power washer) three times with the buffer specified afore but without fluo-4 AM and BSA. This latter buffer was also used as the buffer in the subsequent cell fluorescence measurements.
The dye-loaded and washed cells were pre-incubated for approximately 5 min with various concentrations of the test compound added as a solution in DMSO (0.3% vol/vol maximum final concentration of DMSO), or with DMSO in the respective concentration only (positive control). Subsequent addition of LPA (18:1, 1-oleoyl-sn-glycerol 3-phosphate; 100 nM final concentration) leads to liberation of intracellular calcium from internal stores resulting in a large transient increase of the fluo-4 fluorescence signal which was monitored over approximately 3 min. The percent inhibition caused by the test compound was determined from the maximum fluorescence response after LPA addition to cells pre-incubated with the compound as compared to the maximum fluorescence response after LPA addition to cells pre-incubated with DMSO only. All fluorescence values were corrected for the baseline fluorescence values obtained with cells which were pre-incubated with DMSO only and were not treated with LPA (baseline control). All measurements were performed in triplicate. From the percent inhibitions the inhibitory concentration IC50 was determined.
Turning to `COc1ccc(C(=O)NC2(C(=O)O)Cc3ccccc3C2)cc1OCCc1cc(Cl)ccc1F` [Example 193, 2-{3-[2-(5-Chloro-2-fluoro-phenyl)-ethoxy]-4-methoxy-benzoylamino}-indane-2-carboxylic acid], the IC50 was less than 100 nM.

For the molecule `COc1ccc(C(=O)NC2(C(=O)O)Cc3ccccc3C2)cc1OCC(C)(C)C` [Example 37], the IC50 was 1000 to 30000 nM.

In the case of `COc1ccc(C(=O)NC2(C(=O)O)Cc3ccccc3C2)cc1OCc1cccc(C)c1` [Example 126], the IC50 was in the range of 1000 to 30000 nM.

Consider `COc1ccc(C(=O)NC2(C(=O)O)Cc3ccccc3C2)cc1-c1ccc2occc2c1` [Example 326], for which the IC50 lay within 100 to 1000 nM.

Regarding `COc1ccc(C(=O)NC2(C(=O)O)Cc3ccccc3C2)cc1-c1cc(F)cc(C(F)(F)F)c1` [Example 337], the IC50 is less than 100 nM.

Take `COc1ccc(C(=O)NC2(C(=O)O)Cc3ccccc3C2)cc1OCCCN1CCCCC1` [Example 85]: the IC50 lay in the range of 1000 to 30000 nM.

Regarding `CCc1cccc(-c2cc(C(=O)NC3(C(=O)O)Cc4ccccc4C3)ccc2OC)c1` [Example 202], the IC50 was less than 100 nM.

Regarding `COc1ccc(C(=O)NC2(C(=O)O)Cc3ccc(C#N)cc3C2)cc1OCCc1cccc(C)c1` (stereo not shown) [Example 218, 5-Cyano-2-[4-methoxy-3-(2-m-tolyl-ethoxy)-benzoylamino]-indane-2-carboxylic acid], the IC50 is less than 100 nM.

Turning to `COc1ccc(C(=O)NC2(C(=O)O)Cc3ccccc3C2)cc1-c1cccc(-n2cccn2)c1` [Example 334], the IC50 was in the range of 100 to 1000 nM.

Take `COc1ccc(C(=O)NC2(C(=O)O)Cc3ccccc3C2)cc1OCCCc1ccc(Cl)cc1` [Example 62]: the IC50 lay within 1000 to 30000 nM.

With `COc1ccc(C(=O)NC2(C(=O)O)Cc3ccccc3C2)cc1OCCC1CCCN1C` (stereo not shown) [Example 64], the IC50 was 1000 to 30000 nM.

`COc1ccc(CCCCOc2cc(C(=O)NC3(C(=O)O)Cc4ccccc4C3)ccc2OC)cc1` [Example 60]: the IC50 was 1000 to 30000 nM.

`COc1ccc(C(=O)NC2(C(=O)O)Cc3ccccc3C2)cc1OCCc1cccc(CC(N)=O)c1` [Example 248, 2-{3-[2-(3-Carbamoylmethyl-phenyl)-ethoxy]-4-methoxy-benzoylamino}-indane-2-carboxylic acid]: the IC50 was less than 100 nM.

On to `COc1ncc(C(=O)NC2(C(=O)O)Cc3ccccc3C2)cc1-c1cccc(C)c1` [Example 224, 2-{[6-methoxy-5-(3-methyl-phenyl)-pyridine-3-carbonyl]-amino}-indane-2-carboxylic acid], for which the IC50 is less than 100 nM.

For the molecule `COc1ccc(C(=O)NC2(C(=O)O)Cc3ccccc3C2)cc1-c1cccc(CN(C)C)c1` [Example 338], the IC50 was 1000 to 30000 nM.

For `COc1ccc(C(=O)NC2(C(=O)O)Cc3ccccc3C2)cc1OCCc1cccc(C)c1` [Example 14, 2-[4-Methoxy-3-(2-m-tolyl-ethoxy)-benzoylamino]-indane-2-carboxylic acid], the IC50 was less than 100 nM.

As to `COc1ccc(C(=O)NC2(C(=O)O)Cc3ccccc3C2)cc1CCCc1cccc(C)c1` [Example 116, 2-[4-Methoxy-3-(3-m-tolyl-propyl)-benzoylamino]-indane-2-carboxylic acid], the IC50 was less than 100 nM.

Regarding `COc1ccc(C(=O)NC2(C(=O)O)Cc3ccccc3C2)cc1OCCc1cc(OC(F)(F)F)ccc1F` [Example 355, 2-{3-[2-(2-fluoro-5-trifluoromethoxy-phenyl)-ethoxy]-4-methoxy-benzoylamino}-indane-2-carboxylic acid], the IC50 is less than 100 nM.

For the molecule `Cc1ccc(F)c(CCOc2cc(C(=O)NC3(C(=O)O)Cc4ccccc4C3)ccc2C(F)(F)F)c1` [Example 192], the IC50 is less than 100 nM.

As to `COc1ccc(C(=O)NC2(C(=O)O)Cc3ccccc3C2)cc1-c1ccc(Cl)c(Cl)c1` [Example 292], the IC50 is less than 100 nM.

Consider `COc1ccc(C(=O)NC2(C(=O)O)Cc3ccccc3C2)cc1Cc1ccc(C)cc1` [Example 245, 2-[4-Methoxy-3-(4-methyl-benzyl)-benzoylamino]-indane-2-carboxylic acid], for which the IC50 was less than 100 nM.

With `COc1ccc(C(=O)NC2(C(=O)O)Cc3ccccc3C2)cc1-c1cccc(SC)c1` [Example 301], the IC50 was less than 100 nM.

On to `COc1ncc(C(=O)NC2(C(=O)O)Cc3ccccc3C2)cc1-c1cccc(C(C)C)c1` [Example 221, 2-{[5-(3-Isopropyl-phenyl)-6-methoxy-pyridine-3-carbonyl]-amino}-indane-2-carboxylic acid], for which the IC50 is less than 100 nM.

For the molecule `COc1ccc(C(=O)NC2(C(=O)O)Cc3ccccc3C2)cc1-c1ccc2c(ccn2C)c1` [Example 330], the IC50 was in the range of 1000 to 30000 nM.

Consider `COc1ncc(C(=O)NC2(C(=O)O)Cc3ccccc3C2)cc1-c1cccc(C(F)(F)F)c1F` [Example 230], for which the IC50 is less than 100 nM.

Take `COc1ccc(C(=O)NC2(C(=O)O)Cc3ccccc3C2)cc1C#Cc1ccc(C(C)(C)C)cc1` [Example 195, 2-[3-(4-tert-Butyl-phenylethynyl)-4-methoxy-benzoylamino]-indane-2-carboxylic acid]: the IC50 lay in the range of 100 to 1000 nM.

For the molecule `COc1ccc(C(=O)NC2(C(=O)O)Cc3ccccc3C2)cc1OCCc1cccc(Br)c1` [Example 143], the IC50 was less than 100 nM.

Take `COc1ccc(C(=O)NC2(C(=O)O)Cc3ccccc3C2)cc1OCCc1ccc(C)cc1` [Example 135]: the IC50 was 1000 to 30000 nM.

Take `COc1ccc(C(=O)NC2(C(=O)O)Cc3ccccc3C2)cc1-c1cc(F)cc(OC(C)C)c1` [Example 343]: the IC50 is less than 100 nM.

As for `COc1ccc(C(=O)NC2(C(=O)O)Cc3ccccc3C2)cc1C(O)c1ccccc1C` (stereo not shown) [Example 241, 2-[3-(Hydroxy-o-tolyl-methyl)-4-methoxy-benzoylamino]-indane-2-carboxylic acid], the IC50 lay in the range of 1000 to 30000 nM.

In the case of `COc1ccc(C(=O)NC2(C(=O)O)Cc3ccccc3C2)cc1S(=O)(=O)CCc1cccc(C)c1` [Example 183, 2-[4-Methoxy-3-(2-m-tolyl-ethanesulfonyl)-benzoylamino]-indane-2-carboxylic acid], the IC50 lay within 1000 to 30000 nM.

In the case of `COc1ccc(C(=O)NC2(C(=O)O)Cc3ccccc3C2)cc1-c1ccccc1Cl` [Example 281], the IC50 was 1000 to 30000 nM.

For the molecule `COCc1cccc(-c2cc(C(=O)NC3(C(=O)O)Cc4ccccc4C3)ccc2OC)c1` [Example 315], the IC50 was less than 100 nM.

With `Cc1ccc(C(=O)NC2(C(=O)O)Cc3ccccc3C2)cc1OCCc1cccc(Cl)c1` [Example 176, 2-{3-[2-(3-Chloro-phenyl)-ethoxy]-4-methyl-benzoylamino}-indane-2-carboxylic acid], the IC50 is less than 100 nM.

On to `COc1ccc(C(=O)NC2(C(=O)O)Cc3ccccc3C2)cc1-c1cccc(NS(=O)(=O)N(C)C)c1` [Example 203], for which the IC50 was less than 100 nM.

As for `COc1ccc(C(=O)NC2(C(=O)O)Cc3ccccc3C2)cc1OCCc1cccc(F)c1` [Example 131], the IC50 was less than 100 nM.

For the molecule `COCCOc1cc(C(=O)NC2(C(=O)O)Cc3ccccc3C2)ccc1OC` [Example 33], the IC50 fell in the range of 1000 to 30000 nM.

Regarding `Cc1cccc(CCOc2cc(C(=O)NC3(C(=O)O)Cc4ccccc4C3)ccc2O)c1` [Example 254, 2-[4-Hydroxy-3-(2-m-tolyl-ethoxy)-benzoylamino]-indane-2-carboxylic acid], the IC50 was 1000 to 30000 nM.

Take `COc1ccc(C(=O)NC2(C(=O)O)Cc3ccccc3C2)cc1OCCCC1CC(c2ccccc2)=NO1` (stereo not shown) [Example 53]: the IC50 is 1000 to 30000 nM.

With `COc1ccc(C(=O)NC2(C(=O)O)Cc3ccccc3C2)cc1-c1cccc(C#N)n1` [Example 283], the IC50 fell in the range of 1000 to 30000 nM.
